Data from US20070071725A1, “Nitric oxide synthase gene transfer” (priority 2002, published 2007).
“Also recorded” adds a separate entry of the source.

Key:
[1] = tested on: right double atrial preparations; assay: Heart rate (chronotropic) response of atrial preparations to carbachol; set-up: species or system rat
Procedure: Sutures (Ethicon, 5/0 mersilk) were placed at the lateral edges of both atria and the preparation was transferred to a pre-heated (37±0.1° C.) water-jacketed organ bath containing 100 ml of continuously oxygenated Tyrode's solution. The atria were vertically mounted with the suture in the left atrium connected to a stainless steel hook and the suture in the right atrium attached to an isometric force transducer (Harvard Apparatus, Model 60-2997, Mass. USA) connected to an amplifier. Heart rate was triggered from contraction and recorded in real time (Biopac MP100 with Acqknowledge software).
Preparations were equilibrated in Tyrode's solution for 60-90 minutes at 37° C. until a stable baseline heart rate was achieved. The right vagus was placed through a pair of custom-built platinum ring electrodes and stimulated at 3, 5, 7 and 10 Hz (15 V, 1 ms pulse duration; order of stimulations randomised) for 25 seconds, with an interval of at least 1 minute between successive stimulations. In some experiments vagal stimulation was repeated after application of the NO donor sodium nitroprusside (SNP; 20 μmol/L, 10 minutes incubation; Sigma). In addition, muscarinic responsiveness of atrial preparations was assessed using cumulative concentration-response curves to carbachol (0.1-0.5 μmol/L; Sigma; 2 minutes incubation at each concentration).

cGMP = cGMP efflux concentration in perfused right atrial preparation; set-up: species or system rat; conditions: 0.3 μmol/L, SHR vs WKY
Procedure: Isolated, perfused, beating atria were prepared by previously described method33,34. In brief, the right rat atrium was dissected from the heart after the animal was killed. A cannula containing 2 small catheters sealed within it was inserted into the atrium and secured by ligatures. The outer tip of the atrial cannula was open to allow for outflow. The cannulated atrium was transferred to a preheated (36.5 […]), continuously oxygenated, waterjacketed organ chamber, immediately perfused with oxygenated Tyrode's solution by means of a peristaltic pump (0.5 ml/min).
The atria were perfused for 60 minutes to stabilize. […]
The radioactivity of [^3H]inulin in atrial perfusate was measured with a liquid scintillation counter, and the amount of ECF translocated through the atrial wall was caculated, the amount of ECF translocated through the atrial wall was calculated as: ECF translocated (μl/min/g atrial wet wt)=total radioactivity in the perfusate (cpm/min)×1000/radioactivity in the pericardial reservoir (cpm/μl)×atrial wet wt (mg).
For measurement of cGMP concentration in perfusate, 500 μl of the perfusate was treated with trichloroacetic acid to a final concentration of 6% for 15 minutes at room temperature and centrifuged at 4° C. […] The amount of cGMP efflux was expressed as pmol cGMP/min/g atrial tissue. […]

isolated right atrium = tested on: isolated right atrium; set-up: species or system SD rat; conditions: 100 μM, Ad.PRS-nNOS treated atria, n=6
isolated right atria = assay: Evoked [3H]NE release from isolated right atria of SHR and WKY five days after percutaneous gene transfer; set-up: species or system rat; conditions: 10 μmol/L
isolated atria = assay: [3H]ACh release from isolated atria on field stimulation; set-up: species or system rat; conditions: 10 μmol/L, 5 Hz field stimulation, WKY
Procedure: Animals were killed and the right atria removed as described above. The preparation was then transferred to a preheated (37 ??0.2 ?C), continuously oxygenated, water-jacketed organ bath containing 4 ml of Tyrode's solution where the atrium was pinned flat between two parallel silver stimulating electrodes 10 mm apart. […] After a 45 minutes equilibration period (where the Tyrode's solution was replaced every 15 minutes), the atrium was stimulated at 5 Hz (15V, 1 ms pulse duration) for one minute and then again after another minute to stimulate acetylcholine turnover. […]
Following the wash period superfusion was stopped and the bath solution replaced every 3 minutes with a 0.5 ml sample being taken on every change of solution. This sample was added to 4.5 ml of scintillation fluid (Ecoscint A, National Diagnostics) and the amount of radioactivity in each sample (disintegrations per minute) measured using a liquid scintillation counter (Tri-carb 2800TR, Packard). […] At the end of the experiment, the atrium was immersed overnight in Tyrode's solution containing 4 U/ml papain (Sigma) and the radioactivity contained in the extract determined. [3H] outflow was expressed as a percentage of the total radioactivity in the atrium at the end of the experiment and that released after superfusion.

For `C[N+](C)(C)CCOC(N)=O` [CCh, carbachol], the “heart rate response, SHR compared to WKY” value ([1]; 0.1 μmol/L) was “significantly increased heart rate response in SHR compared to WKY”, the “heart rate response, SHR compared to WKY” value ([1]; 0.2 μmol/L) was “No significantly changed” and the “heart rate response, SHR compared to WKY” value ([1]; 0.5 μmol/L) was “significantly increased heart rate response in SHR compared to WKY”. The cGMP efflux concentration (cGMP) was “significantly increased cGMP efflux concentration in the SHR”.

For `NC(=NCCC[C@H](N)C(=O)O)N[N+](=O)[O-]` [L-NNA, Nω-Nitro-Larginine], the “effect on Ad.PRS-nNOS-induced attenuation of NE release” value (isolated right atrium) was “prevented the Ad.PRS-nNOS-induced attenuation of NE release; also recorded: reverse this response”.

In the case of `O=c1onc2cnc3ccccc3n12` [ODQ, 1H-(1,2,4)oxadiazolo(4,3-a)quinoxaline-1-one], the “effect on NE release” value (isolated right atria; Ad.PRS-eGFP treated SHR) is reported as “did not effect”, the “effect on NE release” value (isolated right atria; Ad.PRS-nNOS or Ad.PRS-eGFP treated WKY atria) is reported as “significantly enhanced” and the “effect on Ad.PRS-nNOS attenuation of NE release” value (isolated right atria; Ad.PRS-nNOS treated SHR) is reported as “reversed”. The “effect on [3H]ACh release” value (isolated atria) was “significantly enhanced”.
